# According to patent US11673865B2, “Cyclooctynes for click chemistry” (Massachusetts Institute of Technology, priority 2021, dated 2023):
# Assays:
# Type in all cases: physicochemical
# [1] = 1,3-dipolar cycloaddition kinetics by HPLC; conditions: CH2Cl2, 26° C., triplicate
# Method: (§1) Kinetics General Method A. Stock solutions at the specified concentrations in the specified solvents were prepared for each dipole and dipolarophile. Aliquots (0.5 mL) of dipole and dipolarophile were mixed, and reactions were monitored by HPLC with aliquots injected at the timepoints shown in the kinetic traces below. Each reaction was carried out in triplicate. The concentration of remaining dipolarophile was obtained from its corresponding peak in the chromatogram monitored at 280 nm. Second-order rate constants were calculated from the slope of the plot of [dipolarophile]^−1 versus time.
# Reaction of 2-Azido-N-methyl-N-(phenylmethyl)acetamide with compound 3 in CH2Cl2. Kinetics General Method A was followed using stock solutions at 80 μM and resulting in final reaction concentrations of 40 μM 2-Azido-N-methyl-N-(phenylmethyl)acetamide and 40 μM compound 3.
# [2] = 1,3-dipolar cycloaddition kinetics by HPLC
# Method: (§2) The rates of reaction for the 1,3-dipolar cycloaddition of dipoles N-benzylazidoacetamide and N-benzyldiazoacetamide with compound 3 in both aprotic (CH2Cl2) and protic solvents (MeOH and PBS containing 2% v/v DMSO) were measured. The depletion of compound 3by using HPLC and second-order rate constants were calculated from the slope of a plot of [compound 3]^−1 versus time. As a benchmark, the rate of the reaction of DIBO with each dipole was also measured.
# as §1
# Reaction of N-benzyldiazoacetamide with DIBO in CH2Cl2. Kinetics General Method A was followed using stock solutions at 2 mM and resulting in final reaction concentrations of 1 mM N-benzyldiazoacetamide and 1 mM DIBO.
# Reaction of N-benzyldiazoacetamide with compound 3 in CH2Cl2. […]
# [3] = 1,3-dipolar cycloaddition kinetics by HPLC; conditions: CH2Cl2, 26° C., triplicate; remark: listed apart in the source
# Method: as §1
# Reaction of compound 9 with compound 3 in CH2Cl2. Kinetics General Method A was followed using stock solutions at 80 μM and resulting in final reaction concentrations of 40 μM 2-Diazo-N-methyl-N-(phenylmethyl)acetamide and 40 μM compound 3.
# [4] = 1,3-dipolar cycloaddition kinetics by HPLC; conditions: CH2Cl2 (FIG. 1)
# Method: To assess the effect of the putative hydrogen bond, the reactivity of compound 3 and DIBO with ethyl diazoacetate, which lacks a hydrogen bond donor, was tested. The rate constant for the reaction of compound 3 with ethyl diazoacetate was nearly 200-fold lower than that with N-benzylazidoacetamide. This decrease is substantially greater than the 4-fold decrease in rate constant for the reaction of these same dipoles with DIBO (FIG. 1).
# as §1
# Reaction of ethyl diazoacetate with compound 3 in CH2Cl2. Kinetics General Method A was followed using stock solutions at 400 μM and resulting in final reaction concentrations of 200 μM ethyl diazoacetate and 200 μM compound 3.
# [5] = Cyclooctyne stability in the presence of glutathione; conditions: 25 μM
# Method: The stability of ABC in the presence of biological nucleophiles was determined using a biomimetic concentration of glutathione, which contains amino, carboxyl, and sulfhydryl groups. DIBAC was used as a comparator.
# A solution of compound 3 (25 μM) or DIBAC (25 μM) was prepared in phosphate-buffered saline containing reduced glutathione (1.0 mM), oxidized glutathione (0.2 mM), and DMSO (2% v/v). The solutions were incubated at 37° C. (FIG. 6), and HPLC analyses were carried out every hour to determine the remaining concentration of dipolarophile. Subsequently, plots of In(concentration) versus time were prepared to calculate values of kobs for the degradation. These values were divided by the concentration of reduced glutathione to obtain second-order rate constants for the degradation with respect to reduced glutathione.
# [6] = 1,3-dipolar cycloaddition kinetics by HPLC; conditions: with N-benzylazidoacetamide; CH2Cl2 (FIG. 1)
# Method: as §2, §1
# Reaction of N-benzylazidoacetamide with DIBO in CH2Cl2. Kinetics General Method A was followed using stock solutions at 2 mM and resulting in final reaction concentrations of 1 mM N-benzylazidoacetamide and 1 mM DIBO.
# Reaction of N-benzylazidoacetamide with compound 3 in CH2Cl2. […]
second-order rate constant of degradation with respect to reduced glutathione [5],Compound,second-order rate constant k [1],rate increase of N-benzyl diazoacetamide over N-benzyl azidoacetamide ([2]; diazoacetamide over azidoacetamide),"rate increase relative to DIBO ([2]; with N-benzyl diazoacetamide, CH2Cl2 (FIG. 1))",second-order rate constant k [3],decrease in rate constant with ethyl diazoacetate relative to N-benzylazidoacetamide [4],rate increase relative to DIBO [6],"second-order rate constant of degradation with respect to reduced glutathione ([5]; 1 mM reduced and 0.2 mM oxidized glutathione in PBS containing DMSO (2% v/v), 37° C., HPLC)"
0.10 M⁻¹ s⁻¹,"Clc1ccc2c(c1)CCc1cccnc1C#C2 [compound 3, 2-Azabenzo-8-chlorobenzocyclooctyne]",1.0 M⁻¹ s⁻¹,~20 fold,"1,200 fold",0.75 M⁻¹ s⁻¹,~200 fold,30 fold,–
–,"dibenzoazacyclooctyne [DIBAC, reference compound]",–,–,–,–,–,–,0.05 M⁻¹ s⁻¹
